Reference: PubChem BioAssay AID2060506 (Molecular Pharmacology Branch, DTP, NCI, 2025)

Test system: 598228-144-R-J1-PDC complex spheroid viability
Experiment: Anticancer human tumor 598228-144-R-J1-PDC patient-derived serous endometrial adenocarcinoma cell line growth inhibition [GQUAD]
Details: for IC50: curve of first compound; for viability, T/C: stronger effect = lower value; active = viability on the fitted dose curve at most 10% of control; inactive = the rest
Procedure, shortened: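 Tumor cells were grown as complex spheroids with HUVEC endothelial cells and mesenchymal stem cells as stroma. G-quadruplex stabilizers were combined with targeted agents over half-log dilutions from near the clinical Cmax, or from 10 microM.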

[1] = second compound 0.0316 µM, first compound 0.0316 µM
[2] = second compound 0.0316 µM, first compound 0.316 µM
[3] = second compound 0.1 µM, first compound 0.0316 µM
[4] = second compound 0.1 µM, first compound 0.316 µM
[5] = second compound 0.316 µM, first compound 0.0316 µM
[6] = second compound 0.316 µM, first compound 0.316 µM
[7] = second compound 1 µM, first compound 0.0316 µM
[8] = second compound 1 µM, first compound 0.316 µM
[9] = second compound 3.16 µM, first compound 0.0316 µM
[10] = second compound 3.16 µM, first compound 0.316 µM
[11] = second compound 10 µM, first compound 0.0316 µM
[12] = second compound 10 µM, first compound 0.316 µM
[13] = second compound 0.0316 µM, first compound 0.1 µM
[14] = second compound 0.0316 µM, first compound 1 µM
[15] = second compound 0.0316 µM, first compound 3.16 µM
[16] = second compound 0.0316 µM, first compound 10 µM
[17] = second compound 0.1 µM, first compound 0.1 µM
[18] = second compound 0.1 µM, first compound 1 µM
[19] = second compound 0.1 µM, first compound 3.16 µM
[20] = second compound 0.1 µM, first compound 10 µM
[21] = second compound 0.316 µM, first compound 0.1 µM
[22] = second compound 0.316 µM, first compound 1 µM
[23] = second compound 0.316 µM, first compound 3.16 µM
[24] = second compound 0.316 µM, first compound 10 µM
[25] = second compound 1 µM, first compound 0.1 µM
[26] = second compound 1 µM, first compound 1 µM
[27] = second compound 1 µM, first compound 3.16 µM
[28] = second compound 1 µM, first compound 10 µM
[29] = second compound 3.16 µM, first compound 0.1 µM
[30] = second compound 3.16 µM, first compound 1 µM
[31] = second compound 3.16 µM, first compound 3.16 µM
[32] = second compound 3.16 µM, first compound 10 µM
[33] = second compound 10 µM, first compound 0.1 µM
[34] = second compound 10 µM, first compound 1 µM
[35] = second compound 10 µM, first compound 3.16 µM
[36] = second compound 10 µM, first compound 10 µM
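Also: spheroids exposed to the agents for one week before reading.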
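For viability, T/C in this document: percent of vehicle DMSO control viability so 100% = untreated growth.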

Cc1[nH]c2ccccc2c1CCNCc1ccc(/C=C/C(=O)NO)cc1 + Cc1cnc(CNC(=O)c2c(=O)c3ccc(N4CCCN(C)CC4)nc3n3c2sc2ccccc23)cn1
< 0.999 nM: IC50 (second compound 3.16 µM) | IC50 (second compound 10 µM)
active: viability, T/C [2] 0.76% | viability, T/C [4] 0.82% | viability, T/C [6] 0.28% | viability, T/C (second compound 1 µM, first compound 0.0999 µM) 0.26% | viability, T/C [8] 0.37% | viability, T/C [9] 0.32% | viability, T/C (second compound 3.16 µM, first compound 0.0999 µM) 0.34% | viability, T/C [10] 0.25% | viability, T/C (second compound 10 µM, first compound 0.00999 µM) 0.43% | viability, T/C [11] 0.33% | viability, T/C (second compound 10 µM, first compound 0.0999 µM) 0.34% | viability, T/C [12] 0.31%
54.4 nM: IC50 (second compound 0.0316 µM)
inactive: viability, T/C (second compound 0.0316 µM, first compound 0.000999 µM) 104% | viability, T/C (second compound 0.0316 µM, first compound 0.00316 µM) 116% | viability, T/C (second compound 0.0316 µM, first compound 0.00999 µM) 85.1% | viability, T/C [1] 67.3% | viability, T/C (second compound 0.0316 µM, first compound 0.0999 µM) 32.4% | viability, T/C (second compound 0.1 µM, first compound 0.000999 µM) 80.7% | viability, T/C (second compound 0.1 µM, first compound 0.00316 µM) 71.8% | viability, T/C (second compound 0.1 µM, first compound 0.00999 µM) 61.1% | viability, T/C [3] 41.6% | viability, T/C (second compound 0.1 µM, first compound 0.0999 µM) 26.2% | viability, T/C (second compound 0.316 µM, first compound 0.000999 µM) 69% | viability, T/C (second compound 0.316 µM, first compound 0.00316 µM) 66.9% | viability, T/C (second compound 0.316 µM, first compound 0.00999 µM) 53.3% | viability, T/C [5] 43.7% | viability, T/C (second compound 0.316 µM, first compound 0.0999 µM) 18.4% | viability, T/C (second compound 1 µM, first compound 0.000999 µM) 62.7% | viability, T/C (second compound 1 µM, first compound 0.00316 µM) 67.1% | viability, T/C (second compound 1 µM, first compound 0.00999 µM) 49.7% | viability, T/C [7] 29.8% | viability, T/C (second compound 3.16 µM, first compound 0.000999 µM) 49.4% | viability, T/C (second compound 3.16 µM, first compound 0.00316 µM) 49.4% | viability, T/C (second compound 3.16 µM, first compound 0.00999 µM) 39.9% | viability, T/C (second compound 10 µM, first compound 0.000999 µM) 20.6% | viability, T/C (second compound 10 µM, first compound 0.00316 µM) 16.2%
11.6 nM: IC50 (second compound 1 µM)
16.1 nM: IC50 (second compound 0.316 µM)
20.2 nM: IC50 (second compound 0.1 µM)

CC(=O)O[C@H]1C(=O)[C@@]2(C)[C@H]([C@H](OC(=O)c3ccccc3)[C@]3(O)C[C@H](OC(=O)[C@H](O)[C@@H](NC(=O)c4ccccc4)c4ccccc4)C(C)=C1C3(C)C)[C@]1(OC(C)=O)CO[C@@H]1C[C@@H]2O + CN(C)c1ccc(Nc2c3ccc(NC(=O)CCN4CCCC4)cc3nc3cc(NC(=O)CCN4CCCC4)ccc23)cc1
inactive: viability, T/C [1] 49.4% | viability, T/C [13] 43.3% | viability, T/C [2] 44.2% | viability, T/C [14] 32.9% | viability, T/C [15] 37.3% | viability, T/C [16] 53.6% | viability, T/C [3] 47.6% | viability, T/C [17] 43.1% | viability, T/C [4] 35% | viability, T/C [18] 38.2% | viability, T/C [19] 33.7% | viability, T/C [20] 35.4% | viability, T/C [5] 47.6% | viability, T/C [21] 40.9% | viability, T/C [6] 40.7% | viability, T/C [22] 34.6% | viability, T/C [23] 47% | viability, T/C [24] 49.4% | viability, T/C [7] 51.8% | viability, T/C [25] 38.7% | viability, T/C [8] 41.9% | viability, T/C [26] 42.1% | viability, T/C [27] 45.4% | viability, T/C [28] 37% | viability, T/C [9] 51.6% | viability, T/C [29] 34.6% | viability, T/C [10] 41.6% | viability, T/C [30] 38.9% | viability, T/C [31] 33.1% | viability, T/C [32] 38.1% | viability, T/C [11] 29.1% | viability, T/C [33] 29.6% | viability, T/C [12] 29.1% | viability, T/C [34] 25.2% | viability, T/C [35] 19.4% | viability, T/C [36] 30.9%
< 31.6 nM: IC50 (second compound 0.0316 µM) | IC50 (second compound 0.1 µM) | IC50 (second compound 0.316 µM) | IC50 (second compound 1 µM) | IC50 (second compound 3.16 µM) | IC50 (second compound 10 µM)

Cc1cccc(N(C)C(=O)C2C(O)CCN2c2nc(C)cc(C(F)(F)F)c2C#N)c1 (stereo unspecified) + Cc1[nH]c2ccc(F)cc2c1-c1nc2c3cccnc3c3ncccc3c2[nH]1
inactive: viability, T/C [1] 114% | viability, T/C [13] 113% | viability, T/C [2] 112% | viability, T/C [14] 82% | viability, T/C [15] 104% | viability, T/C [16] 100% | viability, T/C [3] 110% | viability, T/C [17] 112% | viability, T/C [4] 98% | viability, T/C [18] 94.1% | viability, T/C [19] 104% | viability, T/C [20] 81.7% | viability, T/C [5] 99.8% | viability, T/C [21] 90.3% | viability, T/C [6] 80.9% | viability, T/C [22] 79.2% | viability, T/C [23] 83.9% | viability, T/C [24] 92.7% | viability, T/C [7] 58.6% | viability, T/C [25] 52.7% | viability, T/C [8] 56.2% | viability, T/C [26] 45% | viability, T/C [27] 71.1% | viability, T/C [28] 57.7% | viability, T/C [9] 40.8% | viability, T/C [29] 45.4% | viability, T/C [10] 52.6% | viability, T/C [30] 34.9% | viability, T/C [31] 39.5% | viability, T/C [32] 36.1% | viability, T/C [11] 68.4% | viability, T/C [33] 44.8% | viability, T/C [12] 53.5% | viability, T/C [34] 67.3% | viability, T/C [35] 58% | viability, T/C [36] 61.6%
> 10000 nM: IC50 (second compound 0.0316 µM) | IC50 (second compound 0.1 µM) | IC50 (second compound 0.316 µM) | IC50 (second compound 1 µM) | IC50 (second compound 10 µM)
< 31.6 nM: IC50 (second compound 3.16 µM)
